{"source": "patent US20030143635A1", "about": "“Assay for detection of transferase enzyme activity in drug screening” (AstraZeneca AB, priority 2000, published 2003)", "key": {"[1]": {"system": "translocase and transferase enzymes", "format": "biochemical, Escherichia coli", "details": "100 μM test compound; E. coli AMA1004 membranes; 37° C., 30 min; after subtracting 0% reaction readings", "procedure": "(§1) (i) The wells of a microtitre plate were individually filled with a total volume of 25 μl of a reaction mixture comprising an aqueous buffer solution of 50 mM HEPES-ammonia (N-[2-Hydroxyethyl]piperazine-N′-[2-ethanesulfonic acid]) (pH 7.5), and 10 mM magnesium chloride 15 μM UDP-MurNAc-L-alanine-γ-D-glutamic acid-m-diaminopimelic acid-D-alanine-D-alanine, 2.5 μM tritiated UDP-N-acetyl glucosamine (0.2 μCi per well), 6 μg of Escherichia coli AMA1004 cell membranes prepared as described below and a solution of test compound (e.g. Tunicamycin, Vancomycin) of varying concentration in 4% dimethylsulphoxide.\n(§2) Four wells of the microtitre plate were used as controls: two wells contained no UDP-N-acetylmuramylpentapeptide (0% reaction controls) and a further two wells contained no test compound (100% reaction controls).\n(§3) The microtitre plate was incubated at 37° C. for 30 min and thereafter 5 μl of ethylenediaminetetraacetic acid (EDTA) was added to give a final EDTA concentration of 15 mM.\n(§4) (ii) After addition of the EDTA, 170 μl of an aqueous suspension of wheatgerm agglutinin-coated scintillation proximity assay beads comprising 500 μg beads in a solution of HEPES-ammonia, pH 7.5, was added to each well such that the final concentration of HEPES-ammonia was 50 mM.\n(§5) The plate was left for 3 hours/overnight at room temperature before being counted in the “Microbeta Trilux” counter."}, "[2]": {"target": "T1, transferase enzyme (Escherichia coli, UniProt P17443)", "T1 sequence (P17443 1-355)": "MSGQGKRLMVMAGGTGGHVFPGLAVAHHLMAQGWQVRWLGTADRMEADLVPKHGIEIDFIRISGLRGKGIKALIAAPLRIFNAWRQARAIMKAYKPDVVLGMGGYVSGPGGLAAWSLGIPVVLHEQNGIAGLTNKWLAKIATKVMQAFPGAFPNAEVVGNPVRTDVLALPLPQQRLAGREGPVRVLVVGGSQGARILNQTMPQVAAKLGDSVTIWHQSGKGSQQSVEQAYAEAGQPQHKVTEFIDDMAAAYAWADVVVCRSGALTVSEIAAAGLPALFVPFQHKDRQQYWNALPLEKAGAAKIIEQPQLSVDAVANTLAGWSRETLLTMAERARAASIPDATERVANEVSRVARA", "assay": "Scintillation proximity assay of the transferase alone, with membranes of E. coli AMA1004 ΔponB::SpcR and pre-formed Lipid I (Example 4)", "format": "biochemical", "details": "Tunicamycin 10 μg/ml present, 37° C., 5 min, after subtracting 0% reaction readings", "description": "Microbiol., (1985), 131, 2839-2845. The plate was incubated for 20 min at 37° C.\n(ii) Tunicamycin was then added to a final concentration of 10 μg/ml, followed by a test compound (e.g. Vancomycin or Nisin) of varying concentration in dimethyl sulphoxide. Nisin and Vancomycin are known antagonists of the transferase enzyme.\n(iii) Then to the reaction well, in a 5 μl volume, the substrate for the transferase was added: 2.5 μM tritiated UDP-N-acetyl glucosamine (0.5 μCi per well). The microtitre plate was incubated for 5 min at 37° C.\n(iv) The reaction was terminated by diluting out the radiolabel i.e. by addition of 25 μl of 200 μM unlabelled UDP-GlcNAc."}, "[3]": {"target": "T2, translocase and transferase enzymes (Escherichia coli, UniProt P0A6W3)", "T2 sequence (P0A6W3 1-360)": "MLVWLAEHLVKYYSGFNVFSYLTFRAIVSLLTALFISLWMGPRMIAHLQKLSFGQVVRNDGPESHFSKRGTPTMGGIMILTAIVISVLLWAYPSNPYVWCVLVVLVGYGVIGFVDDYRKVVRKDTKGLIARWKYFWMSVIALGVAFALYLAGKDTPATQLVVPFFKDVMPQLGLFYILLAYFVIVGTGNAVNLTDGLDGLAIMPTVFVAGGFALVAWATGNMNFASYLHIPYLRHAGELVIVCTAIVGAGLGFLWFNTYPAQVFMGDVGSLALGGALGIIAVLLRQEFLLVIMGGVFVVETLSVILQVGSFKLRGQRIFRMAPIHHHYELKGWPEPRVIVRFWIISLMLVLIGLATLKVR", "format": "biochemical", "details": "6 μg/ml test compound; E. coli AMA1004 membranes; 37° C., 30 min; after subtracting 0% reaction readings", "procedure": "as §1, §2, §3, §4, §5"}}}
{"molecule": "CN[C@H](CC(C)C)C(=O)N[C@H]1C(=O)N[C@@H](CC(N)=O)C(=O)N[C@H]2C(=O)N[C@H]3C(=O)N[C@H](C(=O)N[C@H](C(=O)O)c4cc(O)cc(O)c4-c4cc3ccc4O)[C@H](O)c3ccc(c(Cl)c3)Oc3cc2cc(c3O[C@@H]2O[C@H](CO)[C@@H](O)[C@H](O)[C@H]2O[C@H]2C[C@](C)(N)[C@H](O)[C@H](C)O2)Oc2ccc(cc2Cl)[C@H]1O", "note": "[Vancomycin]", "values": [{"measurement": "% Inhibition", "setting": "[1]", "result": 82, "unit": "%"}, {"measurement": "remaining activity at 100 µM", "setting": "[2]; 100 μM test compound", "result": "~50", "unit": "%"}]}
{"molecule": "Nisin", "values": [{"measurement": "% Enzyme Activity", "setting": "[2]; 10 μg/ml test compound", "result": "˜30%"}]}
{"molecule": "Tunicamycin", "values": [{"measurement": "% Inhibition", "setting": "[3]", "result": 104, "unit": "%"}]}
